Where two headings read alike, the source gives them in different places. Where only a bound is given, the exact number is not on record here.

Data set [1] has as its system mice exposed to X-ray or gamma ray radiation. Put plainly: antiradiation test, 30-day survival of irradiated mice. The data set is classed as in vivo. Particulars: Mus musculus, light or radiation study, ip, i.p., 950 R cobalt-60 gamma or 825 R X-ray, read-out: Survival (30 days). The text has this:
The compounds of the invention are new chemical compounds that are useful as pharmacological agents, especially as antiradiation agents that are active in protecting against the effects of exposure to X-ray or gamma ray radiation.
In this table, the activity of each compound is expressed in terms of the percentage of animals that survived (30 days) the exposure to radiation at the given dose. The dose given is generally the lowest dose at which a high rate of survival was obtained. Administration was by the intraperitoneal route. Except where indicated otherwise, each compound was administered as the monohydrochloride salt to a test group consisting of 15 mice. The radiation dose was either 950 Roentgens supplied by a cobalt-60 gamma ray source or 825 Roentgens from an X-ray source.

Data set [2] is described as follows: approximate LD50 (acute toxicity, antiradiation activity table). Particulars: mouse, in vivo, ip, mice, intraperitoneal.
The mark [3] stands for this setting: 0.25 h, pre-irradiation time 15 min., 15 mice, monohydrochloride.
Setting [4] is: 0.5 h, pre-irradiation time 30 min., 15 mice, monohydrochloride.

With `Cl.Ic1ccc(OCCCCN2CCSC2)nc1` [I 4, 5-iodo-2-[4-(3-thiazolidinyl)-butoxy]pyridine, monohydrochloride], in data set [1] (setting [3]), the responders at 100 mg/kg was 20%. Besides, the LD50 in data set [2] (monohydrochloride salt) is over 300 mg/kg.
With `Cl.Ic1ccc(OCCCCCN2CCSC2)nc1` [I 5, 5-Iodo-2-{[5-(3-thiazolidinyl)pentyl]oxy}-pyridine, monohydrochloride], in data set [1] (setting [4]), the responders at 100 mg/kg was determined as 93%. Further, the LD50 in data set [2] (monohydrochloride salt) was about 230 mg/kg.
As for `Brc1ccc(OCCCN2CCSC2)nc1.Cl` [Br 3, 5-bromo-2-[3-(3-thiazolidinyl)propoxy]pyridine, monohydrochloride], in data set [1] (setting [3]), the responders at 100 mg/kg amounted to 33%. For the same molecule, the LD50 in data set [2] (monohydrochloride salt) was about 250 mg/kg.
Turning to `Brc1ccc(OCCCCCN2CCSC2)nc1.Cl` [Br 5, 5-Bromo-2-{[5-(3-thiazolidinyl)pentyl]oxy}-pyridine, monohydrochloride], the responders at 90 mg/kg in data set [1] (0.5 h, dose 90 mg./kg., pre-irradiation time 30 min., six mice, monohydrochloride) was 83%. Moreover, the responders at 180 mg/kg in data set [1] (0.5 h, dose 180 mg./kg., pre-irradiation time 30 min., six mice, monohydrochloride) is 100%. The LD50 in data set [2] (monohydrochloride salt) was about 240 mg/kg.
On to `Cl.Cl.Clc1ccc(OCCCCCN2CCSC2)nc1` [Cl 5, 5-Chloro-2-{[5-(3-thiazolidinyl)pentyl]-oxy}pyridine, dihydrochloride], for which the responders at 80 mg/kg in data set [1] (0.25 h, pre-irradiation time 15 min., 15 mice, dihydrochloride) stood at 87%; in data set [1] (0.5 h, pre-irradiation time 30 min., 15 mice, dihydrochloride), 93%. For the same molecule, in data set [2] (dihydrochloride salt), the LD50 is about 160 mg/kg.
With `Cl.Ic1ccc(OCCCCCCCN2CCSC2)nc1` [I 7, 5-Iodo-2-{[7-(3-thiazolidinyl)heptyl]oxy}-pyridine, monohydrochloride], in data set [1] (setting [4]), the responders at 100 mg/kg turned out to be 47%. For the same molecule, the LD50 in data set [2] (monohydrochloride salt) was about 200 mg/kg.
As to `Brc1ccc(OCCCCCCCCN2CCSC2)nc1.Cl` [Br 8, 5-Bromo-2-{[8-(3-thiazolidinyl)octyl]oxy}-pyridine, monohydrochloride], in data set [1] (0.5 h, dose 50 mg./kg., pre-irradiation time 30 min., 15 mice, monohydrochloride), the responders at 50 mg/kg was determined as 20%. In addition, the LD50 in data set [2] (monohydrochloride salt) was about 230 mg/kg.
For the molecule `Cc1ccc(OCCCCCN2CCSC2)nc1` [CH3 5, 5-methyl-2-{[5-(3-thiazolidinyl)pentyl]-oxy}pyridine], the responders at 70 mg/kg in data set [1] (0.5 h, dose 70 mg./kg., pre-irradiation time 30 min., 15 mice, dihydrochloride) came out at 33%. Moreover, in data set [2] (dihydrochloride salt), the LD50 is about 190 mg/kg.

(Values after patent publication US4185152A, “Thiazolidinyl alkoxy pyridines” (Warner-Lambert Company, priority 1971, dated 1980).)
